# Assay results taken from US20240400986A1, “MEMBRANE BOUND COMPOSITIONS AND METHODS RELATING TO SAME” (FLAGSHIP PIONEERING INNOVATIONS VII, LLC, priority 2021, published 2024).
# Where two headings read alike, the source gives them in different places.
# How the values were obtained:
# [1] = tested on: neuronal cell line derived from human neuroblastoma
# [2] = tested on: neuronal cell line derived from human neuroblastoma; assay: Small molecule compound screen of gigasome production in neuronal monocultures; conditions: for Number of Gigasomes Produced / Fold Change of Gigasomes Produced vs. DMSO: 24 hours
# Text: To quantify and characterize gigasome production using microscopy, while tracking cell viability/phenotype, a multi-readout system was developed that allowed simultaneous analysis of gigasomes harvested from cell culture media supernatants and respective gigasome producing cell viability. […] For the screening, a total of 99 compounds (TargetMol) were divided in 5 groups. Each group included an untreated condition, a vehicular DMSO control, and a known high-gigasome producing condition to comparatively study gigasome production rates. As a cell death control group, 500 nM Staurosporine was added to induce apoptosis. Cultures were incubated for 24 hours under gigasome inducing conditions at concentrations ranging between 10 nM and 10,000 nM. Before the end of the treatment, live neuronal cultures were imaged. The Zeiss ZEN Blue software was used to distribute imaging fields of view (positions) to create an unbiased imaging sample of a well. 5 images were taken using a Zeiss LSM 900 confocal microscope. […] The BioApps ZEN software package was used to perform cell nucleus segmentation and counting. After 24 hours, gigasomes were harvested from the cell culture media by gently removing from the top of each 96-well ⅔ of the total volume without disturbing the cell layer (containing the settled gigasomes) and by adding to each well the same amount of PBS. The wells were washed twice gently, and the gigasome-containing media/PBS wash was transferred into the well of a 384-well glass bottom plate. Cells remaining in the 96-well plates were assessed for viability using CellTiter-Glo (Promega).
# For gigasome analysis in 384-well plates, the Zeiss ZEN Blue software was used to distribute positions to create an unbiased imaging sample of a well. 6 images per well were taken using a Zeiss LSM 900 confocal microscope.
# A watershed binary segmentation step was performed to separate grouped objects. For each particle in the mask, characteristic parameters of the particle were calculated and saved.
# Particles of interest were identified by thresholding by area and circularity. […] Circularity, defined by the formula 4pi(area/perimeter^2, was set to be between 0.8 and 1, where a value of 1.0 is a perfect circle, and a value of 0 is a line. Gigasomes were identified from the particles of interest by thresholding by mean nuclear signal. The nuclear signal threshold was set using a value equal to one fourth of a threshold value calculated by the Li auto-threshold algorithm applied to the distribution of all particles of interest. Particles of interest with nuclear signal below this value were considered “negative” for nuclear material and were identified as gigasomes. A sampling factor was calculated to extrapolate the total quantity of a type of object (particles, particles of interest, gigasomes) in the well. The sampling factor was the percentage of the well's area that was imaged. […] The normalized quantity or distribution of objects was described as a quantity or distribution of objects per 1000 cells.
# [3] = tested on: cardiomyocytic cell line derived from human ventricular heart tissue; assay: Small molecule compound screen of gigasome production in cardiomyocytic monocultures;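 further: gigasomes shed into the culture medium were imaged by confocal microscopy and counted as round particles lacking nuclear signal, extrapolated to the whole well, fold change is relative to DMSO vehicle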
# Experimental: For the screening, a total of 100 randomly organized compounds (TargetMol) were divided in 5 groups. Each group included an untreated condition, a vehicular DMSO control, and a known high-gigasome producing condition to comparatively study gigasome production rates. As a cell death control group, 500 nM Staurosporine was added to induce apoptosis. Cultures were incubated for 24 hours under gigasome inducing conditions at concentrations ranging between 10 nM and 10,000 nM. […] The Zeiss ZEN Blue software was used to distribute imaging fields of view (positions) to create an unbiased imaging sample of a well. 5 images were taken using a Zeiss LSM 900 confocal microscope. […] The BioApps ZEN software package was used to perform cell nucleus segmentation and counting. After 24 hours, gigasomes were harvested from the cell culture media by gently removing from the top of each 96-well ⅔ of the total volume without disturbing the cell layer (containing the settled gigasomes) and by adding to each well the same amount of PBS containing 0.5 mM EDTA. The wells were washed twice gently, and the gigasome-containing media/0.5 mM EDTA PBS wash was transferred into the well of a 384-well glass bottom plate. Cells remaining in the 96-well plates were assessed for viability using CellTiter-Glo (Promega).
# For gigasome analysis in 384-well plates, the Zeiss ZEN Blue software was used to distribute positions to create an unbiased imaging sample of a well. 6 images per well were taken using a Zeiss LSM 900 confocal microscope. […] A watershed binary segmentation step was performed to separate grouped objects. For each particle in the mask, characteristic parameters of the particle were calculated and saved. […] Particles of interest were identified by thresholding by area and circularity. […] Circularity, defined by the formula 4pi(area/perimeter^2, was set to be between 0.8, where a value of 1.0 is a perfect circle, and a value of 0 is a line. Gigasomes were identified from the particles of interest by thresholding by mean nuclear signal. The nuclear signal threshold was set using a value equal to one quarter of a threshold value calculated by the Li auto-threshold algorithm applied to the distribution of all particles of interest. Particles of interest with nuclear signal below this value were considered “negative” for nuclear material and were identified as gigasomes. A sampling factor was calculated to extrapolate the total quantity of a type of object (particles, particles of interest, gigasomes) in the well. The sampling factor was the percentage of the well's area that was imaged. […] In some experiments, the number of cells in the cell cultures were estimated with a cell counter. […] The normalized quantity or distribution of objects was described as a quantity or distribution of objects per 1000 cells.
# [4] = Homo sapiens, 24 h, read-out: Fold Change of Gigasomes Produced vs. DMSO
# [5] = Table 22, dose 10 nM, cardiomyocytes, 24 hours
# [6] = Table 22, dose 1000 nM, cardiomyocytes, 24 hours
# [7] = Table 22, dose 10000 nM, cardiomyocytes, 24 hours
# [8] = neuronal cells, dose 10 nM, 24 hours
# [9] = neuronal cells, dose 100 nM, 24 hours
# [10] = neuronal cells, dose 1000 nM, 24 hours
# [11] = neuronal cells, dose 10000 nM, 24 hours
# [12] = Table 23 (down-regulators), dose 10 nM, cardiomyocytes
# [13] = Table 23 (down-regulators), dose 100 nM, cardiomyocytes
# [14] = Table 23 (down-regulators), dose 1000 nM, cardiomyocytes
# [15] = Table 23 (down-regulators), dose 10000 nM, cardiomyocytes
smiles,measurement,setting,value
C/C(=C\c1csc(C)n1)[C@@H]1C[C@@H]2O[C@]2(C)CCC[C@H](C)[C@H](O)[C@@H](C)C(=O)C(C)(C)[C@@H](O)CC(=O)N1 [Ixabepilone],Viability,"[1]; human, 24 h, 10 nM",50-75%
same,fold induction at 0.01 µM,[2]; [4],2 to 3
same,Number of Gigasomes Produced,"[2]; neuronal cells, dose 10 nM",65-75
"COc1ccc(S(=O)(=O)N(CCO)c2ccccc2CN(C)C/C=C/c2ccc(Cl)cc2)cc1 [KN-93, reference compound]",Fold Change of Gigasomes Produced vs. DMSO,[3]; [5],1.25-1.5
same,Number of Gigasomes Produced,[3]; [5],225-250
same,Fold Change of Gigasomes Produced vs. DMSO,[3]; [6],1.25-1.5
same,Number of Gigasomes Produced,[3]; [6],250-275
same,Fold Change of Gigasomes Produced vs. DMSO,[3]; [7],1.5-1.75
same,Number of Gigasomes Produced,[3]; [7],250-275
CC(C)(O)c1coc(S(=O)(=O)NC(=O)Nc2c3c(cc4c2CCC4)CCC3)c1 [MCC950 sodium],Viability,[1]; [8],100%
same,Viability,[1]; [9],>75%
same,Viability,[1]; [10],100%
same,Viability,[1]; [11],100%
same,fold induction at 0.01 µM,[2]; [4],1 to 1.25
same,fold induction at 0.1 µM,[2]; [4],1 to 1.25
same,fold induction at 1 µM,[2]; [4],0.5 to 0.75
same,fold induction at 10 µM,[2]; [4],0.75 to 1
same,Number of Gigasomes Produced,"[2]; neuronal cells, dose 10 nM",35-40
same,Number of Gigasomes Produced,"[2]; neuronal cells, dose 100 nM",35-40
same,Number of Gigasomes Produced,"[2]; neuronal cells, dose 1000 nM",20-25
same,Number of Gigasomes Produced,"[2]; neuronal cells, dose 10000 nM",25-30
"CCCCCCCCCCCCCC[N+](C)(C)C.[Br-] [MiTMAB, reference compound]",Viability,[1]; [11],>75%
same,Fold Change of Gigasomes Produced vs. DMSO,"[2]; neuronal cells, dose 10000 nM",2.0-3.0
same,Number of Gigasomes Produced,"[2]; neuronal cells, dose 10000 nM",55-65
"CN[C@H](CC(=O)O)C(=O)O [NMDA, reference compound]",Viability,[1]; [8],100%
same,Viability,[1]; [9],100%
same,Viability,[1]; [10],100%
same,Viability,[1]; [11],100%
same,Fold Change of Gigasomes Produced vs. DMSO,"[2]; neuronal cells, dose 10 nM",0.75-1.0
same,Number of Gigasomes Produced,"[2]; neuronal cells, dose 10 nM",30-35
same,Fold Change of Gigasomes Produced vs. DMSO,"[2]; neuronal cells, dose 100 nM",0.75-1.0
same,Number of Gigasomes Produced,"[2]; neuronal cells, dose 100 nM",30-35
same,Fold Change of Gigasomes Produced vs. DMSO,"[2]; neuronal cells, dose 1000 nM",0.5-0.75
same,Number of Gigasomes Produced,"[2]; neuronal cells, dose 1000 nM",20-25
same,Fold Change of Gigasomes Produced vs. DMSO,"[2]; neuronal cells, dose 10000 nM",0.25-0.5
same,Number of Gigasomes Produced,"[2]; neuronal cells, dose 10000 nM",15-20
same,downregulation of gigasome production,"[2]; neuronal cells, doses 10-10,000 nM, 24 h",dose-dependent downregulation
CCCCc1ccc(NC(C)=O)c(C)c1 [SMIP004],Fold Change of Gigasomes Produced vs. DMSO,[3]; [6],1.0-1.25
same,Number of Gigasomes Produced,[3]; [6],150-175
same,Fold Change of Gigasomes Produced vs. DMSO,[3]; [7],1.25-1.5
same,Number of Gigasomes Produced,[3]; [7],175-200
same,Fold Change of Gigasomes Produced vs. DMSO,"[2]; neuronal cells, dose 10 nM",>1.25
same,Number of Gigasomes Produced,"[2]; neuronal cells, dose 10 nM",>40
same,Fold Change of Gigasomes Produced vs. DMSO,"[2]; neuronal cells, dose 100 nM",0.75-1.0
same,Number of Gigasomes Produced,"[2]; neuronal cells, dose 100 nM",35-40
same,Fold Change of Gigasomes Produced vs. DMSO,"[2]; neuronal cells, dose 1000 nM",0.75-1.0
same,Number of Gigasomes Produced,"[2]; neuronal cells, dose 1000 nM",30-35
same,Fold Change of Gigasomes Produced vs. DMSO,"[2]; neuronal cells, dose 10000 nM",0.75-1.0
same,Number of Gigasomes Produced,"[2]; neuronal cells, dose 10000 nM",30-35
O=C(Nc1ccccc1-c1cn2c(CN3CCNCC3)csc2n1)c1cnc2ccccc2n1 [SRT 1720],Fold Change of Gigasomes Produced vs. DMSO,[3]; [6],1.0-1.25
same,Number of Gigasomes Produced,[3]; [6],150-175
NC(=O)C1CCCc2c1[nH]c1ccc(Cl)cc21 (stereo not shown) [Selisistat],Fold Change of Gigasomes Produced vs. DMSO,[3],1.25-1.5
same,Number of Gigasomes Produced,[3]; [5],150-175
CCC(C)(C)C(=O)O[C@H]1C[C@@H](C)C=C2C=C[C@H](C)[C@H](CC[C@@H]3C[C@@H](O)CC(=O)O3)[C@H]21 [Simvastatin],Number of Gigasomes Produced,"[2]; neuronal cells, dose 100 nM",<35
same,Number of Gigasomes Produced,"[2]; neuronal cells, dose 1000 nM",35-45
same,Number of Gigasomes Produced,"[2]; neuronal cells, dose 10000 nM",45-55
Fc1ccc(CNc2ncnc3ccc(F)cc23)cc1 [Spautin-1],Fold Change of Gigasomes Produced vs. DMSO,[3]; [12],0.75-1.0
same,Number of Gigasomes Produced,[3]; [12],105-120
same,Fold Change of Gigasomes Produced vs. DMSO,[3]; [13],0.75-1.0
same,Number of Gigasomes Produced,[3]; [13],120-135
same,Fold Change of Gigasomes Produced vs. DMSO,[3]; [14],0.5-0.75
same,Number of Gigasomes Produced,[3]; [14],90-105
same,Fold Change of Gigasomes Produced vs. DMSO,[3]; [15],0.5-0.75
same,Number of Gigasomes Produced,[3]; [15],75-90
"O=C(Oc1cccc(F)c1OC(=O)c1cccc(O)c1)c1cccc(O)c1 [WZB117, reference compound]",Fold Change of Gigasomes Produced vs. DMSO,[3]; [12],1.0-1.25
same,Number of Gigasomes Produced,[3]; [12],120-135
same,Fold Change of Gigasomes Produced vs. DMSO,[3]; [13],0.75-1.0
same,Number of Gigasomes Produced,[3]; [13],105-120
same,Fold Change of Gigasomes Produced vs. DMSO,[3]; [14],0.75-1.0
same,Number of Gigasomes Produced,[3]; [14],105-120
same,Fold Change of Gigasomes Produced vs. DMSO,[3]; [15],0.25-0.5
same,Number of Gigasomes Produced,[3]; [15],35-50
same,downregulation of gigasome production,"[3]; cardiomyocytes, doses 10-10,000 nM, 24 h",dose-dependent downregulation
